The numbers were not newly measured in US9421272B2, “Nanocarrier compositions and methods” (RUTGERS, THE STATE UNIVERSITY OF NEW JERSEY, priority 2009, dated 2016), which cites them from elsewhere.

For data set [1] the following is noted: disulfide bond; relative to cysteamine linker.
The target of a further data set is T1, PepT1 (Homo sapiens, UniProt P46059).
T1 sequence (P46059 1-708): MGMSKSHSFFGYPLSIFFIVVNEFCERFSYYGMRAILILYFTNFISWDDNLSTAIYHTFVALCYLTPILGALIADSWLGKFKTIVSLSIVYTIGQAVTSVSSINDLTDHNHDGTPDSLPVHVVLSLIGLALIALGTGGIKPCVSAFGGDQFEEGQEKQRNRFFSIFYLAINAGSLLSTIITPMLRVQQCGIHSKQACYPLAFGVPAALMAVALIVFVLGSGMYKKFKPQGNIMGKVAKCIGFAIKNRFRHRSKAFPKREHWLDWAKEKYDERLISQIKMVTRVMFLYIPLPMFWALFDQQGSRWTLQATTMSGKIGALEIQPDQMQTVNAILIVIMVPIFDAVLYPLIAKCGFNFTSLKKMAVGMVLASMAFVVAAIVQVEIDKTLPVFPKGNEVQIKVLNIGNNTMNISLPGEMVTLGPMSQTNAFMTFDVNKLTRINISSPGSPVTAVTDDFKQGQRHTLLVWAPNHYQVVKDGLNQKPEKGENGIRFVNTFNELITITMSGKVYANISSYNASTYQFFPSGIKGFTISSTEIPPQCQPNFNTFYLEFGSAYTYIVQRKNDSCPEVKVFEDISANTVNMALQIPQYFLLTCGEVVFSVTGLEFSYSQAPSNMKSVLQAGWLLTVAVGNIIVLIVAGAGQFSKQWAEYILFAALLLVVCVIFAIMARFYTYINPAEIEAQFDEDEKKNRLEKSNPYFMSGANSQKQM
The note with it: interaction between valacyclovir and PepT1.

For data set [2] the following is noted: compared to the counterpart with a 5 kDa linear PEG.

Turning to `CC(C)(S)CN` [1-amino-2-methyl-2-propanethiol], the “degradation rate, slower than the corresponding less hindered cysteamine linker” value in data set [1] is “about 100 times”. Take `CC(C)[C@H](N)C(=O)OCCOCn1cnc2c(=O)[nH]c(N)nc21` [valacyclovir]: the “increase in the bioavailability of acyclovir” value on PepT1 is recorded as “three to four-fold increase”.

B1: branched 10 kDa PEG to asparaginase: asparaginase bound to a branched 10 kDa PEG (conjugate, UniProt P00805 23-348, looked up)
L-asparaginase 2: LPNITILATGGTIAGGGDSATKSNYTVGKVGVENLVNAVPQLKDIANVKGEQVVNIGSQDMNDNVWLTLAKKINTDCDKTDGFVITHGTDTMEETAYFLDLTVKCDKPVVMVGAMRPSTSMSADGPFNLYNAVVTAADKASANRGVLVVMNDTVLDGRDVTKTNTTDVATFKSVNYGPLGYIHNGKIDYQRTPARKHTSDTPFDVSKLNELPKVGIVYNYANASDLPAKALVDAGYDGIVSAGVGNGNLYKSVFDTLATAAKTGTAVVRSSRVPTGATTQDAEVDDAKYGFVASGTLNPQKARVLLQLALTQTKDPQQIQQIFNQY
modifications: branched 10 kDa PEG
With B1, the reduction of antigenicity in data set [2] was 10 fold.
